Values quoted from earlier work as cited in patent US9476892B2, “Composition and method for measuring thallium influx and efflux” (priority 2007, dated 2016).

Conditions: background statement, poorly soluble

## [Cl][Tl] [thallium chloride]
  concentration at which thallium chloride precipitates out of solution: ≥ 4500 µM
